Tests used:
[1] = biological target: VEGFR2, unphosphorylated (Homo sapiens (Human), UniProt P35968); test: VEGFR ADP GLO Assay; format: biochemical
[2] = biological target: PDGFRβ (Rattus norvegicus (Rat), UniProt Q05030); test: PDGFRβ Cellular Assay (PDGFRb P-Y751 HTRF in A10 cells stimulated with PDGF-BB); format: cell-based; details: read-out: PDGFR Cellular IC50
In short: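 Rat A10 cells, plated overnight, were treated with compound for 3 hours, then stimulated with PDGF-BB (working stock 100 ng/mL in 10% FBS medium). After lysis, PDGFRβ P-Y751 was detected by HTRF.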

[3] = biological target: Tb-labeled inactive PDGFRβ (Homo sapiens (Human), UniProt P09619); test: PDGFRβ LanthaScreen Assay; format: binding; details: read-out: PDGFR Lantha IC50
Sequence of Tb-labeled inactive PDGFRβ (P09619 33-1106): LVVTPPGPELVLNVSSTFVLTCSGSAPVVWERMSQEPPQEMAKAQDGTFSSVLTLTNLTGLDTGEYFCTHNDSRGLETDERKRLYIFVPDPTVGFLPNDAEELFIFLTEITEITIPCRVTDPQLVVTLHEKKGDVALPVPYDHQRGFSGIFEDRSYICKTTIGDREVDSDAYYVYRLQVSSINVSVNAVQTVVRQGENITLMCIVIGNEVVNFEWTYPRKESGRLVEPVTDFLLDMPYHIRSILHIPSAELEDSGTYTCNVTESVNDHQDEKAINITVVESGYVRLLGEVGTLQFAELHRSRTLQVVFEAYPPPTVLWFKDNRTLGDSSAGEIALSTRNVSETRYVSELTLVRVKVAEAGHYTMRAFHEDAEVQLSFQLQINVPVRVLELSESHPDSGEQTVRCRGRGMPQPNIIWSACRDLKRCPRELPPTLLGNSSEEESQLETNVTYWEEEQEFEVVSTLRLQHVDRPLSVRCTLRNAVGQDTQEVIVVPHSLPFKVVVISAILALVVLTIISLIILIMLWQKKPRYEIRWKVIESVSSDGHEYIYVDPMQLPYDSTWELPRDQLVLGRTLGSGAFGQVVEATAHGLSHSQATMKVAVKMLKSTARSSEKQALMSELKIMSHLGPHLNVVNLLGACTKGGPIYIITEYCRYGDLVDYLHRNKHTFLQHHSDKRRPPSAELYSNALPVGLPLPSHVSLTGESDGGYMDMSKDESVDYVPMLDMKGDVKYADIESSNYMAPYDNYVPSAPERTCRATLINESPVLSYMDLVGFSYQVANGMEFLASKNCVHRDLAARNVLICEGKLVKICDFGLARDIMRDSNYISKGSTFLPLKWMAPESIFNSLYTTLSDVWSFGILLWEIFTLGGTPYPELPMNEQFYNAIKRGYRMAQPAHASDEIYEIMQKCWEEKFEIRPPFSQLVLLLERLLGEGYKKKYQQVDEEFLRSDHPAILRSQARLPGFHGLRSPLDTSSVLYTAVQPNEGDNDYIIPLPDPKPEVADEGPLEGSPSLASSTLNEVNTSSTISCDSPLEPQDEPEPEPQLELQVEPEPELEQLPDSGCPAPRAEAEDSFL

Sequence of PDGFRβ (Q05030 32-1097): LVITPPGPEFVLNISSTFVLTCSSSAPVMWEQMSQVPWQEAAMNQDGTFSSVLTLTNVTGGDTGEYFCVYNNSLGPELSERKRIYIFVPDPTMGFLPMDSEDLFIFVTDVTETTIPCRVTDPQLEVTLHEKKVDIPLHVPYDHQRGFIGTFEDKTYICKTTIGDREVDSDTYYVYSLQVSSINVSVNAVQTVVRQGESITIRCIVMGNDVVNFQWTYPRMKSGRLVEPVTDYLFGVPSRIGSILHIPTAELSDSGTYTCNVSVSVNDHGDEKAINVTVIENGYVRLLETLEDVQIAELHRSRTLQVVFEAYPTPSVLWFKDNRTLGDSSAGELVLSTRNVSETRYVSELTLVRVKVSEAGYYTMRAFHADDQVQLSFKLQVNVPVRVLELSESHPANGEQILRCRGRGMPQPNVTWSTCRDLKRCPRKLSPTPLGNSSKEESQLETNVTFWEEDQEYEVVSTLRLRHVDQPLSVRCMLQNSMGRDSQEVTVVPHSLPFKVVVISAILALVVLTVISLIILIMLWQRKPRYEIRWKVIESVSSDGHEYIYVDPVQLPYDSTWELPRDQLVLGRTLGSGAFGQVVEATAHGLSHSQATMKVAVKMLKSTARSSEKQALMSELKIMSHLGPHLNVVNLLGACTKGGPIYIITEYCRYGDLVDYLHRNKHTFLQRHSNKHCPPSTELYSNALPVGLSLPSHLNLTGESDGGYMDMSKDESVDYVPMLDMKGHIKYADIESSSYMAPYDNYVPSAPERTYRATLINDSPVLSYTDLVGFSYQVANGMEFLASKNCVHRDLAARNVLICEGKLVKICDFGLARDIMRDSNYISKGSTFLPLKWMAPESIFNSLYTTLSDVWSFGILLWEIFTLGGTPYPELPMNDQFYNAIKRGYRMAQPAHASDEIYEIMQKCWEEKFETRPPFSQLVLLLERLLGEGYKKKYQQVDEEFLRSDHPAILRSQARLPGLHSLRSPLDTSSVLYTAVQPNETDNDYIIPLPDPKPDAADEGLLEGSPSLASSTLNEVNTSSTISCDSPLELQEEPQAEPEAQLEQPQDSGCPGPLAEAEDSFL
Sequence of VEGFR2, unphosphorylated (P35968 20-1356): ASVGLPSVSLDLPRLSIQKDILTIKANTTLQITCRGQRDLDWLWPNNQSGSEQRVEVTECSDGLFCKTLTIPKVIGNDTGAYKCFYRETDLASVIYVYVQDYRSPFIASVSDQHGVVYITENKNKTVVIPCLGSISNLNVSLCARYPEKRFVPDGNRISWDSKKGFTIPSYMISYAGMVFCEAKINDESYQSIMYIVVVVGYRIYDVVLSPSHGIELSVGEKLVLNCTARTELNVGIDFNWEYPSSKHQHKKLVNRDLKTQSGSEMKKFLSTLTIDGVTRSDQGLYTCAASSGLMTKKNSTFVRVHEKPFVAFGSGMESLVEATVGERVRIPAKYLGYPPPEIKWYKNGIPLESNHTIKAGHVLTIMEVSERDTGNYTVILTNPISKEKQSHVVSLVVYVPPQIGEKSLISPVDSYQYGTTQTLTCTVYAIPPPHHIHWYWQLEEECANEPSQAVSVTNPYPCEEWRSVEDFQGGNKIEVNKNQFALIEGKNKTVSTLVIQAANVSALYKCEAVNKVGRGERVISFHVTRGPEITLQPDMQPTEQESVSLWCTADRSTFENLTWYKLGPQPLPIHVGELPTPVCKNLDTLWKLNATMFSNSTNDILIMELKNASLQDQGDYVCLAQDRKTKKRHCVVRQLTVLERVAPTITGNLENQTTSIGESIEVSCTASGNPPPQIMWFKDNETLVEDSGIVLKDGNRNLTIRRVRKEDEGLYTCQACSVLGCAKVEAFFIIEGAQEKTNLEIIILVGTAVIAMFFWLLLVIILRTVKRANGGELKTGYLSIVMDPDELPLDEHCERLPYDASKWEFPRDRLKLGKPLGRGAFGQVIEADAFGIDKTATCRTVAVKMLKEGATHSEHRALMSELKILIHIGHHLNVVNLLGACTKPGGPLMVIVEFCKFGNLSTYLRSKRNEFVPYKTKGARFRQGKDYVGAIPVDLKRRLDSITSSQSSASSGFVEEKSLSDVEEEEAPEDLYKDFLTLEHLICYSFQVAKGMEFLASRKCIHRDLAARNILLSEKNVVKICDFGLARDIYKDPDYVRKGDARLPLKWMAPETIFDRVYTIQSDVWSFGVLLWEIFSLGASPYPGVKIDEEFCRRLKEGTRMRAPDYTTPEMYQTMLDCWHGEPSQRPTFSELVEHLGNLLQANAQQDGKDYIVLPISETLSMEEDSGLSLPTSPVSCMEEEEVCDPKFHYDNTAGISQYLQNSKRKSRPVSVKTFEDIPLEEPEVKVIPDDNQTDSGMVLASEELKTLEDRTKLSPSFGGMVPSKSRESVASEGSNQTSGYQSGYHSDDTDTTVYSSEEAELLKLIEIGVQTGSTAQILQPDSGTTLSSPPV

Structure (SMILES): Cc1ncc(C(=O)NCCN2CCCC23CC3)cc1NC(=O)c1cnn2cc(-c3cnn(C)c3)sc12 [Example 2, N-(5-((2-(4-azaspiro[2.4]heptan-4-yl)ethyl)carbamoyl)-2-methylpyridin-3-yl)-2-(1-methyl-1H-pyrazol-4-yl)pyrazolo[5,1-b]thiazole-7-carboxamide]
- IC50 [1]: > 7500 nM
- IC50 [2]: 30.2 nM
- IC50 [3]: 11.5 nM

Structure (SMILES): Cc1ncc(C(=O)NCCN2CCCC23CCC3)cc1NC(=O)c1cnn2cc(-c3cnn(C)c3)sc12 [Example 3, N-(5-((2-(5-azaspiro[3.4]octan-5-yl)ethyl)carbamoyl)-2-methylpyridin-3-yl)-2-(1-methyl-1H-pyrazol-4-yl)pyrazolo[5,1-b]thiazole-7-carboxamide]
- IC50 [1]: 6980 nM
- IC50 [2]: 6 nM
- IC50 [3]: 4 nM

Structure (SMILES): Cc1ncc(NC(=O)CCN2CCCC2(C)C)cc1NC(=O)c1cnn2cc(-c3cnn(C)c3)sc12 [Example 42, N-(5-(3-(2,2-dimethylpyrrolidin-1-yl)propanamido)-2-methyl-pyridin-3-yl)-2-(1-methyl-1H-pyrazol-4-yl)pyrazolo[5,1-b]thiazole-7-carboxamide]
- IC50 [1]: > 7500 nM
- IC50 [2]: 5.9 nM
- IC50 [3]: 3.8 nM

Structure (SMILES): Cc1ncc(NC(=O)CCN2CC3CCC2CC3)cc1NC(=O)c1cnn2cc(-c3cnn(C)c3)sc12 [Example 43, N-(5-(3-(2-azabicyclo[2.2.2]octan-2-yl)propanamido)-2-methylpyridin-3-yl)-2-(1-methyl-1H-pyrazol-4-yl)pyrazolo[5,1-b]thiazole-7-carboxamide]
- IC50 [1]: > 7500 nM
- IC50 [2]: 7.2 nM
- IC50 [3]: 3.9 nM

Structure (SMILES): Cc1ncc(NC(=O)CN2C3CCC2COC3)cc1NC(=O)c1cnn2cc(-c3cnn(C)c3)sc12 [Example 44, N-(5-(2-(3-oxa-8-azabicyclo[3.2.1]octan-8-yl)acetamido)-2-methylpyridin-3-yl)-2-(1-methyl-1H-pyrazol-4-yl)pyrazolo[5,1-b]thiazole-7-carboxamide]
- IC50 [1]: > 7500 nM
- IC50 [2]: 23.7 nM
- IC50 [3]: 11.6 nM

Structure (SMILES): Cc1ncc(NC(=O)CN2CC3CC(C2)O3)cc1NC(=O)c1cnn2cc(-c3cnn(C)c3)sc12 [Example 45, N-(5-(2-(6-oxa-3-azabicyclo[3.1.1]heptan-3-yl)acetamido)-2-methylpyridin-3-yl)-2-(1-methyl-1H-pyrazol-4-yl)pyrazolo[5,1-b]thiazole-7-carboxamide]
- IC50 [1]: > 7500 nM
- IC50 [2]: 75.4 nM
- IC50 [3]: 31 nM

Structure (SMILES): Cc1ncc(NC(=O)CN2CCC3(CC2)COC3)cc1NC(=O)c1cnn2cc(-c3cnn(C)c3)sc12 [Example 46, N-(5-(2-(2-oxa-7-azaspiro[3.5]nonan-7-yl)acetamido)-2-methylpyridin-3-yl)-2-(1-methyl-1H-pyrazol-4-yl)pyrazolo[5,1-b]thiazole-7-carboxamide]
- IC50 [1]: > 7500 nM
- IC50 [2]: 85.5 nM
- IC50 [3]: 89 nM

Structure (SMILES): Cc1ncc(NC(=O)CN2CCOCC23CC3)cc1NC(=O)c1cnn2cc(-c3cnn(C)c3)sc12 [Example 47, N-(5-(2-(7-oxa-4-azaspiro[2.5]octan-4-yl)acetamido)-2-methylpyridin-3-yl)-2-(1-methyl-1H-pyrazol-4-yl)pyrazolo[5,1-b]thiazole-7-carboxamide]
- IC50 [1]: > 7500 nM
- IC50 [2]: 37.2 nM
- IC50 [3]: 16.5 nM

Structure (SMILES): Cc1ncc(NC(=O)CN2Cc3cccnc3C2)cc1NC(=O)c1cnn2cc(-c3cnn(C)c3)sc12 [Example 48, N-(5-(2-(5H-pyrrolo[3,4-b]pyridin-6 (7H)-yl)acetamido)-2-methylpyridin-3-yl)-2-(1-methyl-1H-pyrazol-4-yl)pyrazolo[5,1-b]thiazole-7-carboxamide]
- IC50 [1]: > 7500 nM
- IC50 [2]: 49.3 nM
- IC50 [3]: 16.8 nM

Structure (SMILES): Cc1ncc(NC(=O)CN2CCCC(F)(F)C2)cc1NC(=O)c1cnn2cc(-c3cnn(C)c3)sc12 [Example 49, N-(5-(2-(3,3-difluoropiperidin-1-yl)acetamido)-2-methylpyridin-3-yl)-2-(1-methyl-1H-pyrazol-4-yl)pyrazolo[5,1-b]thiazole-7-carboxamide]
- IC50 [1]: > 7500 nM
- IC50 [2]: 4.7 nM
- IC50 [3]: 2.1 nM
